Results reported in ChEMBL document CHEMBL3400053, “trans-3,4-Disubstituted pyrrolidines as inhibitors of the human aspartyl protease renin. Part II: prime site exploration using an oxygen linker” (Bioorg Med Chem Lett, 2015).
pIC50: −log10 of the molar value.

Legend:
[1] = target: T1, Alpha-2B adrenergic receptor (Homo sapiens, UniProt P18089); experiment: Inhibition of alpha-adrenoceptor 2B (unknown origin)
T1 sequence (P18089 whole entry): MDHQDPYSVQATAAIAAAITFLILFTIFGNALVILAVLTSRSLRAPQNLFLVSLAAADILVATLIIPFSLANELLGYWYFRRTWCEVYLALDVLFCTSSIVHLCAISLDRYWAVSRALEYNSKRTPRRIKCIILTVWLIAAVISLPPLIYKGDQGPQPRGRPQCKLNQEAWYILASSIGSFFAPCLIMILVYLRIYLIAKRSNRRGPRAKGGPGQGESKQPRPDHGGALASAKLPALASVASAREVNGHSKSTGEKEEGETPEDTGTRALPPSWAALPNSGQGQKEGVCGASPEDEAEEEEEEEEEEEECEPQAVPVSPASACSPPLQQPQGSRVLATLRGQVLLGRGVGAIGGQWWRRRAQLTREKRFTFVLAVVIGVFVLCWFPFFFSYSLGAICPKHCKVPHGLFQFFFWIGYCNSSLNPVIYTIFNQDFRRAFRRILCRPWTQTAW

[2] = target: Voltage-gated inwardly rectifying potassium channel KCNH2 (Homo sapiens, UniProt Q12809); experiment: Inhibition of human ERG by dofetilide binding assay
Voltage-gated inwardly rectifying potassium channel KCNH2, sequence (Q12809 whole entry): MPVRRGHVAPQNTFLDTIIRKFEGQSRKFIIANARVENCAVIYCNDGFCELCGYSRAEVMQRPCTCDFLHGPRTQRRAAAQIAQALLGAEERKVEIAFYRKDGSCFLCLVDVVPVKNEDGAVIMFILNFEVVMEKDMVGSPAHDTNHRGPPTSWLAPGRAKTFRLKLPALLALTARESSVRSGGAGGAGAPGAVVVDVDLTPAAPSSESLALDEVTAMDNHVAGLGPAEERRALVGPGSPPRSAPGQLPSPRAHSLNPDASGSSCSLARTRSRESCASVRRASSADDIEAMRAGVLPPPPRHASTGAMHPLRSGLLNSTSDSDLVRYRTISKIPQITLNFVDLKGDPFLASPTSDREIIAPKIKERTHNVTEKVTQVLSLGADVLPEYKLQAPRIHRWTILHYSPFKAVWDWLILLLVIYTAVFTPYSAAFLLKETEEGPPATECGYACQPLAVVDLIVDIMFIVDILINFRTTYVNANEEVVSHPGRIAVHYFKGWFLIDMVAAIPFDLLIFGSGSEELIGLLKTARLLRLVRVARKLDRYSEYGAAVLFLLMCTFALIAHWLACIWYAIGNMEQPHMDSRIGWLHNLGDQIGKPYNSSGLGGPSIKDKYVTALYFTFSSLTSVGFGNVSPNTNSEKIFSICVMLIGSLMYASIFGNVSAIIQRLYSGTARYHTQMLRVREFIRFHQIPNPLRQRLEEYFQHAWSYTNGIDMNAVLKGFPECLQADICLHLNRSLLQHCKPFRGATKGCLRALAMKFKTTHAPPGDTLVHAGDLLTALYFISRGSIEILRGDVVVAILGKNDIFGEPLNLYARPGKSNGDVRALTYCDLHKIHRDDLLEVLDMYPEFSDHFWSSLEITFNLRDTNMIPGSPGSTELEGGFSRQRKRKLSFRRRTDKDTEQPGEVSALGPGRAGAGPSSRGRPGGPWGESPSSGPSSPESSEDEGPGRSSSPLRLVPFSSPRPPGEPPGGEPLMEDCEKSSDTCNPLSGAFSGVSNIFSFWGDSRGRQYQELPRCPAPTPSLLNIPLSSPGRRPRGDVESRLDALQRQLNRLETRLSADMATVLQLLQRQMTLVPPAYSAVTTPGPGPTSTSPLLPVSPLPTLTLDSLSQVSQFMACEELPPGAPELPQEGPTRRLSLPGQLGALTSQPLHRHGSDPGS

Cytochrome P450 2D6 = Cytochrome P450 2D6 (Homo sapiens, UniProt P10635); experiment: Inhibition of CYP2D6 (unknown origin); assay type: ADME
Cytochrome P450 2D6, sequence (P10635 whole entry): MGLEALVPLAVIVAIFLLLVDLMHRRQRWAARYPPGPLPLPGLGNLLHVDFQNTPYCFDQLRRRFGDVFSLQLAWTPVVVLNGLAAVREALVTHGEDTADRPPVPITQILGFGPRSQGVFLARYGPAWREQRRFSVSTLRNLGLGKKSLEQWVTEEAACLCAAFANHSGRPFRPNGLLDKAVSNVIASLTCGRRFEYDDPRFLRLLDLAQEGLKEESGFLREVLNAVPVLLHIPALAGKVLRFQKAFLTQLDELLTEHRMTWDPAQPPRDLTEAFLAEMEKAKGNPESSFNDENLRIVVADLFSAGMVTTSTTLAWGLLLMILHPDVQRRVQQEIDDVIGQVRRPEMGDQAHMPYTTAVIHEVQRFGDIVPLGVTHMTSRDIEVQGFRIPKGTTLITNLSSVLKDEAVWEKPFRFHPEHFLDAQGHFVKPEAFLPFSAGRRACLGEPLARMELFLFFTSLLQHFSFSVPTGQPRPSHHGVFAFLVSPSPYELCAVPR

Cytochrome P450 3A4 = Cytochrome P450 3A4 (Homo sapiens, UniProt P08684); experiment: Inhibition of CYP3A4 (unknown origin) using 7-benzyl-4-trifluoromethylcoumarin as fluorometric substrate; assay type: ADME
Cytochrome P450 3A4, sequence (P08684 whole entry): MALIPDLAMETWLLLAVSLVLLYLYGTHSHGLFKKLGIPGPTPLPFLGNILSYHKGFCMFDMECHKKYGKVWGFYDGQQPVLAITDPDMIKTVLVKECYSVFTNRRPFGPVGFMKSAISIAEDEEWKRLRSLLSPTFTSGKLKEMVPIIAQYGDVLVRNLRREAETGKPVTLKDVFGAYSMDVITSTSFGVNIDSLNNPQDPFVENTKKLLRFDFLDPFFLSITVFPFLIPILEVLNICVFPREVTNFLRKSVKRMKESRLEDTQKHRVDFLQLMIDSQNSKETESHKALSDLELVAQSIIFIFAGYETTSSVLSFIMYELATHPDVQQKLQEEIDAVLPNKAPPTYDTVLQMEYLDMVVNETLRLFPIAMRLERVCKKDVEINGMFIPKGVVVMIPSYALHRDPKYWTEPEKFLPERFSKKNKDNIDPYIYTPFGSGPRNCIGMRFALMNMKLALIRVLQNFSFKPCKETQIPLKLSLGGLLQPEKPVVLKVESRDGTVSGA

[3] = Solubility in aqueous buffer at pH 6.8; assay type: physicochemical
Rattus norvegicus [4] = experiment: AUC (0 to 24 hrs) in cannulated fed Sprague-Dawley rat at 6 mg/kg, po; assay type: ADME, organism-based, Plasma; set-up: time < 24 hr, dose 6 mg/kg, route oral; conditions: in vivo
[5] = Half life in cannulated fed Sprague-Dawley rat at 2 mg/kg, iv; assay type: ADME, organism-based; set-up: dose 2 mg/kg, route intravenous; conditions: in vivo
Rattus norvegicus [6] = experiment: Plasma clearance in cannulated fed Sprague-Dawley rat at 2 mg/kg, iv; assay type: ADME, organism-based; set-up: dose 2 mg/kg, route intravenous; conditions: in vivo
Phosphodiesterase 3 = Phosphodiesterase 3 (Homo sapiens, UniProt Q14432+Q13370); experiment: Inhibition of PDE3 (unknown origin); assay type: protein assay
Beta-secretase 2 = target: T2, Beta-secretase 2 (Homo sapiens, UniProt Q9Y5Z0); experiment: Inhibition of BACE2 (unknown origin)
T2 sequence (Q9Y5Z0 whole entry): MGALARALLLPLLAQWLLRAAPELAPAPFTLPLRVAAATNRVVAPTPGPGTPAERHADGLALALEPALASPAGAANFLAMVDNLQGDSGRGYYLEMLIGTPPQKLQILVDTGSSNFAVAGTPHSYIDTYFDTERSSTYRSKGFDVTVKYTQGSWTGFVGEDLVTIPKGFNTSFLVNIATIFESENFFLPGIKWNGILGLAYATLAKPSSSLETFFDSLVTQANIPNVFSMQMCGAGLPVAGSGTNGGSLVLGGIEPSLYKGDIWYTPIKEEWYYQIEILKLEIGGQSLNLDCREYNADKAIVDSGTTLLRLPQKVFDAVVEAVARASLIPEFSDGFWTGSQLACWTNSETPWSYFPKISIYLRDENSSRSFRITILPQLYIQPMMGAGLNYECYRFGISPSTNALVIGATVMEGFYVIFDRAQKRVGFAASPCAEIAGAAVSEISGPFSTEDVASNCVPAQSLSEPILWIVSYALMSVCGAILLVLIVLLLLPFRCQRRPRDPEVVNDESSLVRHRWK

Rattus norvegicus [7] = experiment: Reduction in mean arterial blood pressure in hypertensive telemetered double-transgenic rat overexpressing human renin and angiotensinogen at 6 mg/kg, po; assay type: functional
Beta-secretase 1 = Beta-secretase 1 (Homo sapiens, UniProt P56817); experiment: Inhibition of BACE1 (unknown origin)
Beta-secretase 1, sequence (P56817 whole entry): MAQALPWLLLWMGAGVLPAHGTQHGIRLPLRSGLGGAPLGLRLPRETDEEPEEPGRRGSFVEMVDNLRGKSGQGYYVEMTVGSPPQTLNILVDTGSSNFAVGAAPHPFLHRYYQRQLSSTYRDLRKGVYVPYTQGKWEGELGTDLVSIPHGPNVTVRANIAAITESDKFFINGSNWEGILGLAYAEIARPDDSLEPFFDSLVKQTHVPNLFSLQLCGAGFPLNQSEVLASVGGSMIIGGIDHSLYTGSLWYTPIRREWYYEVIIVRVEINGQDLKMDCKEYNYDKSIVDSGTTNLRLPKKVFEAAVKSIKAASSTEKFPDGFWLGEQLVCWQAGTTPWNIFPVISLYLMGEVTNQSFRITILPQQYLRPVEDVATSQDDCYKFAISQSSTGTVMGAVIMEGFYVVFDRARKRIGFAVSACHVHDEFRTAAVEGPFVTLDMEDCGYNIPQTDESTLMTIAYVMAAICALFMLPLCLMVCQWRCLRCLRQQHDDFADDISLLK

[8] = target: T3, Alpha-2A adrenergic receptor (Homo sapiens, UniProt P08913); experiment: Inhibition of alpha-adrenoceptor 2A (unknown origin)
T3 sequence (P08913 whole entry): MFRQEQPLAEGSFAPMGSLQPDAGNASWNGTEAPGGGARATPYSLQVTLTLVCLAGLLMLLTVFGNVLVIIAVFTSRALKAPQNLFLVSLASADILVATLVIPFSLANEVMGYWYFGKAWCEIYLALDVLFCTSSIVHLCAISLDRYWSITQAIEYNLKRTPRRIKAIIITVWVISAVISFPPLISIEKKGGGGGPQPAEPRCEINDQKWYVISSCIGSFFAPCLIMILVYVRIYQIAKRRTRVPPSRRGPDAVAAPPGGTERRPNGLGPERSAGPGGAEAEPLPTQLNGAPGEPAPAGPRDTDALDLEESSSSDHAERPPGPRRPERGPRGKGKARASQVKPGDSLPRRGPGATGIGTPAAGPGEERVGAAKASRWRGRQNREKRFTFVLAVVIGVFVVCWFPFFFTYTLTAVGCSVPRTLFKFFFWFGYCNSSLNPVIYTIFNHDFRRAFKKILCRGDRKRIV

Cytochrome P450 2C9 = Cytochrome P450 2C9 (Homo sapiens, UniProt P11712); experiment: Inhibition of CYP2C9 (unknown origin); assay type: ADME
Cytochrome P450 2C9, sequence (P11712 whole entry): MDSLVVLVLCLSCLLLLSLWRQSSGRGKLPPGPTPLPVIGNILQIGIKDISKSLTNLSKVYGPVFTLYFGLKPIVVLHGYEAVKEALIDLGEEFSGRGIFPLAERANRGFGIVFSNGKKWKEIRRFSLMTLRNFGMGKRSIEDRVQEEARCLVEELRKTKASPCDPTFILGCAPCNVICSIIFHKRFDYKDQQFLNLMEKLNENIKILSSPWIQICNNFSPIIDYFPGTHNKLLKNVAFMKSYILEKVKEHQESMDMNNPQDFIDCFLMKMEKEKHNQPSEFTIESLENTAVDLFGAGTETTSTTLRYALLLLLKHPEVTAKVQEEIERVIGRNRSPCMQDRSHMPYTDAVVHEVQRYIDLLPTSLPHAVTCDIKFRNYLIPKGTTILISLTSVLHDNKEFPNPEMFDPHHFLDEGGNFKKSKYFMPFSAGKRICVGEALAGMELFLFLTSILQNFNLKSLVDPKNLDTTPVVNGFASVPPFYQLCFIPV

Cathepsin E = target: T4, Cathepsin E (Homo sapiens, UniProt P14091); experiment: Inhibition of cathepsin E (unknown origin)
T4 sequence (P14091 whole entry): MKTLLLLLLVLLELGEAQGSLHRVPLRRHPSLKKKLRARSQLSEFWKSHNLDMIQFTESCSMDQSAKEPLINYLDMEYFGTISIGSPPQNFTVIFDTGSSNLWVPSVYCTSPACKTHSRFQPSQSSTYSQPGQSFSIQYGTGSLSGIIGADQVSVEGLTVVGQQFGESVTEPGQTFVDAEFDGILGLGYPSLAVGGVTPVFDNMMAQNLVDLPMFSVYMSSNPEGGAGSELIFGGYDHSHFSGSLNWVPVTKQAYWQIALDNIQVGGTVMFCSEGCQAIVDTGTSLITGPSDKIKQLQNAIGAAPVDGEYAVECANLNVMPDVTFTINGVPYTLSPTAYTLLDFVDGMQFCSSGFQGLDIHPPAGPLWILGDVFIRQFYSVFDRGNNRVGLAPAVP

[9] = target: T5, Alpha-1A adrenergic receptor (Homo sapiens, UniProt P35348); experiment: Inhibition of alpha-adrenoceptor 1A (unknown origin)
T5 sequence (P35348 whole entry): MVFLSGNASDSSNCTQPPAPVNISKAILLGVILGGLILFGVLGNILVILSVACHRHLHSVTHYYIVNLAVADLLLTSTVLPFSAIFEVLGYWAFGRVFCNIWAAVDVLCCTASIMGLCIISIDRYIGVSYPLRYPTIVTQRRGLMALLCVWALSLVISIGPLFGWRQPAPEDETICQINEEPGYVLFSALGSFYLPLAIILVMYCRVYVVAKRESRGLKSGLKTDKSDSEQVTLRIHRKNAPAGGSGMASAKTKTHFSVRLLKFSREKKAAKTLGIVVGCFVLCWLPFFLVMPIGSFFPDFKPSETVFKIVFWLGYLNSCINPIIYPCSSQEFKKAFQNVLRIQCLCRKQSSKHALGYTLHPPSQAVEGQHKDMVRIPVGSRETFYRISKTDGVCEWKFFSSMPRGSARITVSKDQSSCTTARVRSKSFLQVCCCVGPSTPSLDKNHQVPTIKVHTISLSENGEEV

Question: With `COCCCOc1cc(C(=O)N(C[C@@H]2CNC[C@H]2OC(=O)NCc2ccccc2)C(C)C)ccc1OC` as the compound, how does the pIC50 [1] read?
Answer: The pIC50 was 6.00.

Question: And the pIC50 [2]?
Answer: The pIC50 was 4.89.

Question: What about the pIC50 (Cytochrome P450 2D6) of the same compound?
Answer: The pIC50 was under 4.70.

Question: What about the pIC50 (Cytochrome P450 3A4) of the same compound?
Answer: Its pIC50 is 5.40.

Question: And the solubility [3]?
Answer: Its solubility is over 1000 µM.

Question: And the AUC (Rattus norvegicus [4])?
Answer: The AUC was 0.468 µM·h.

Question: And the half-life [5]?
Answer: The half-life was 2.2 h.

Question: What about the CL (Rattus norvegicus [6]) of the same compound?
Answer: The CL was 41.7 mL/min/kg.

Question: What about the IC50 (Phosphodiesterase 3) of the same compound?
Answer: Its IC50 is 1 µM.

Question: And the pIC50 (Beta-secretase 2)?
Answer: Its pIC50 is under 4.52.

Question: What about the Activity (Rattus norvegicus [7]) of the same compound?
Answer: The Activity was 43 mmHg.

Question: And the pIC50 (Beta-secretase 1)?
Answer: The pIC50 was under 4.52.

Question: What about the pIC50 [8] of the same compound?
Answer: Its pIC50 is 6.00.

Question: And the pIC50 (Cytochrome P450 2C9)?
Answer: Its pIC50 is under 4.70.

Question: What about the pIC50 (Cathepsin E) of the same compound?
Answer: Its pIC50 is under 4.52.

Question: And the pIC50 [9]?
Answer: Its pIC50 is 6.30.
